The record followed here is article PMC4507174, “Sulfonoquinovosyl diacylglyceride selectively targets acute lymphoblastic leukemia cells and exerts potent anti-leukemic effects in vivo” (Scientific Reports, 2015).

The target of assay [1] is T1, human DNA topoisomerase I (Homo sapiens, UniProt P11387).
T1 construct: gene TOP1
T1 sequence (P11387 2-765): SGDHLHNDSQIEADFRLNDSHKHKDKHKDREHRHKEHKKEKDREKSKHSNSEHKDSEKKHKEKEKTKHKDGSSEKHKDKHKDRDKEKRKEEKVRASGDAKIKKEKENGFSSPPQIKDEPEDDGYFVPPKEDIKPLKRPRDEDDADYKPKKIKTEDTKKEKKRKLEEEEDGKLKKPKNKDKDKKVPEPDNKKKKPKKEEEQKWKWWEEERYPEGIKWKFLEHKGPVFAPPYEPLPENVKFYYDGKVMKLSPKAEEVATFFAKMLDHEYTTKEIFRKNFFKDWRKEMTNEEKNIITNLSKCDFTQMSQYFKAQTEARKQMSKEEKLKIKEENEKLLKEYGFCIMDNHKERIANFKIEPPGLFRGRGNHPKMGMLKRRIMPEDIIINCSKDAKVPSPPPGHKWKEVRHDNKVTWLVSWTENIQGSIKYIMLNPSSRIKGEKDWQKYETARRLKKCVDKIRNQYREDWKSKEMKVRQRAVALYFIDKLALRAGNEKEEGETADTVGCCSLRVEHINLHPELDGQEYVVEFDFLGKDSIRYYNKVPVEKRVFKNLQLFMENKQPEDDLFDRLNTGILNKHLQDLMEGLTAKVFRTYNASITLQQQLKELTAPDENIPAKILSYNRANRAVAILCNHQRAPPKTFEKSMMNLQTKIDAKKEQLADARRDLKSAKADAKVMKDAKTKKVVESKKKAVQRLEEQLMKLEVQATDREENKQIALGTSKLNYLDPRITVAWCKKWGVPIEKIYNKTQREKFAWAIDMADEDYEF
Kind of assay: oligonucleotide cleavage assay:[…] BA added before […] CPT. It is filed as biochemical.

Assay [2] has as its target T1, human DNA topoisomerase I. Kind of assay: DNA relaxation assay with enzyme preincubation; also EMSA and cleavage assays. The assay is classed as biochemical. In general terms: In EMSA bound probe runs differently from free probe, usually more slowly.

As for `C=C(C)[C@@H]1CC[C@]2(C(=O)O)CC[C@]3(C)[C@H](CC[C@@H]4[C@@]5(C)CC[C@H](O)C(C)(C)[C@@H]5CC[C@]43C)[C@@H]12` [Betulinic acid], the “oligonucleotide cleavage assay: 20 uM BA added before 20 uM CPT” value in assay [1] was “SQDG/BA abrogates CPT mediated topo I-oligo covalent complex formation”. Take `CCCCCCCCCCCCCCCC(=O)OC[C@H](CO[C@H]1O[C@H](CS(=O)(=O)O)[C@@H](O)[C@H](O)[C@H]1O)OC(=O)CCCCCCCCCCCCCCC` [SQDG]: the IC100 in assay [2] is 1.5 µM.
